Measured values reported in patent US6300353A, “Azoles for treatment of fungal infections” (Basilea Pharmaceutica AG, a Swiss Company, priority 1998, dated 2001).
Like-named read-outs stand apart in the source and are kept apart here.

How the values were obtained:
Candida albicans = test: In vivo efficacy, systemic candidiasis model; settings: in Rattus norvegicus, 336 h
Aspergillus fumigatus [1] = test: In vivo efficacy, systemic aspergillosis model; settings: in Rattus norvegicus, 336 h
physchem = settings: water
[2] = Conversion of compounds of formula (I') to compounds of formula (II) in human plasma; assay type: in vitro ADME; settings: 37° C.; for remaining at 5 min / metabolised at 5 min: incubation time 5 min; for remaining at 5 min: read-out: Observed (%) Comp. (I'); for metabolised at 5 min: read-out: Observed (%) Compound (II)
Description: In addition, the azole of formula I' are chemically stable in aqueous solution at room temperature more than three days, but are efficiently converted into compounds of formula (II) in either mouse, rat, monkey or human plasma. The conversion of representatives of the new azole compounds of the general formula (I') to compounds of formula (II) in human plasma are shown in Table 4. The compounds of formula (I') were incubated with human plasma at a concentration of 10.quadrature.g/ml at 37° C. for up to 20 min.

Aspergillus fumigatus [3] = test: In vivo efficacy, pulmonary aspergillosis model; settings: in Rattus norvegicus, 336 h
CYP2C9 = CYP2C9 (Homo sapiens, UniProt P11712); test: In vitro P450 inhibitory activity (CYP2C9, tolbutamide 4-hydroxylation), human liver microsomes
Sequence of CYP2C9 (P11712 whole entry): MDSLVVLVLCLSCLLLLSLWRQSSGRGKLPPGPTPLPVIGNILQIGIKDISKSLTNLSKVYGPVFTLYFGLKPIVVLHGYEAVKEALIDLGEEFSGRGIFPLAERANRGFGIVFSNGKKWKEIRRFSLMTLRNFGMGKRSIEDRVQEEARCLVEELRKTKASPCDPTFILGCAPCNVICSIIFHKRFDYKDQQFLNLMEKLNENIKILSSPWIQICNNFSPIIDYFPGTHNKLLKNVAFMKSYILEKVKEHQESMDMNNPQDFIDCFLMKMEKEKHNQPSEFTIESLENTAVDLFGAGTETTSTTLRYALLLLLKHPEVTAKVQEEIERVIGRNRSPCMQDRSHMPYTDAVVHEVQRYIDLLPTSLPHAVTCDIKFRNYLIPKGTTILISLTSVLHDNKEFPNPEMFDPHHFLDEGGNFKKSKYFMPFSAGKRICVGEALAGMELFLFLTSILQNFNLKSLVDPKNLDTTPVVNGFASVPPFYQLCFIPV
Description: Each azole compound at different concentrations was incubated with a specific substrate for each CYP, human liver microsomes and NADPH at 37° C. […] The substrate concentrations and incubation conditions were as follows:

CYP3A4 = CYP3A4 (Homo sapiens, UniProt P08684); test: In vitro P450 inhibitory activity (CYP3A4, midazolam 1-hydroxylation), human liver microsomes; assay type: in vitro ADME; settings: midazolam 10 μM, 10 min, read-out: P450 inhibition IC50, CYP 3A4
Sequence of CYP3A4 (P08684 whole entry): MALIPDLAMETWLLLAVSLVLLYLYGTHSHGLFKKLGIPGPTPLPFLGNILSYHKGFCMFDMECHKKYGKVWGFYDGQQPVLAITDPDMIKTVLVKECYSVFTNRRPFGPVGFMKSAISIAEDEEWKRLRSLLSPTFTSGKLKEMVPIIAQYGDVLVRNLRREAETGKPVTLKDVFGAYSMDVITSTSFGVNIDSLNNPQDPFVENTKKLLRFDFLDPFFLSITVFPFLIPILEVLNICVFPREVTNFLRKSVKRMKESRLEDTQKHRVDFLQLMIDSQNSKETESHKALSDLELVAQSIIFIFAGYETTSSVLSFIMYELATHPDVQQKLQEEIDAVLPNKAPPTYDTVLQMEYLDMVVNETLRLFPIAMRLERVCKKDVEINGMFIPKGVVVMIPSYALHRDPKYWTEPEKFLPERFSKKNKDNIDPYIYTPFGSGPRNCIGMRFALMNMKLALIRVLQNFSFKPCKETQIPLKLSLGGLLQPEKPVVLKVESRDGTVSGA

[4] = po, read-out: Effective dose 50% (ED50), systemic candidiasis, p.o.
[5] = iv, read-out: Effective dose 50% (ED50), systemic aspergillosis, i.v.
[6] = iv, read-out: Effective dose 50% (ED50), pulmonary aspergillosis, i.v.

| Compound | ED50 (Candida albicans; [4]) | ED50 (Aspergillus fumigatus [1]; [5]) | solubility (physchem) | half-life [2] | remaining at 5 min [2] | metabolised at 5 min [2] | ED50 (Aspergillus fumigatus [3]; [6]) | IC50 (CYP2C9) | other results |
| --- | --- | --- | --- | --- | --- | --- | --- | --- | --- |
| CNCC(=O)Oc1c(C)cc(C[n+]2cnn(C[C@](O)(c3cc(F)ccc3F)[C@@H](C)c3nc(-c4ccc(C#N)cc4)cs3)c2)cc1C.[Br-] [Example 1, 1-{(2R,3R)-3-[4-(4-cyano-phenyl)-thiazol-2-yl]-2-(2,5-difluoro-phenyl)-2-hydroxy-butyl}-4-(3,5-dimethyl-4-methylaminoacetoxy-benzyl)-1H-[1,2,4]triazol-4-ium bromide] | 5.3 µmol/kg | 3 µmol/kg | 22 mg/mL | < 1 min | < 5% | 96% | 8 ± 4.2 µmol/kg |  | ED50 (Candida albicans; iv, read-out: Effective dose 50% (ED50), systemic candidiasis, iv.): 5.3 µmol/kg; ED50 (Aspergillus fumigatus [1]; po, read-out: Effective dose 50% (ED50), systemic aspergillosis, p.o.): 5.8 µmol/kg; ED50 (Aspergillus fumigatus [3]; po, read-out: Effective dose 50% (ED50), pulmonary aspergillosis, p.o.): 7.4 ± 3.8 µmol/kg |
| CNCC(=O)Oc1c(C)cc(C[n+]2cnn(C[C@](O)(c3cc(F)c(F)cc3F)[C@@H](C)c3nc(-c4ccc(C#N)cc4)cs3)c2)cc1C.Cl.[Br-] [Example 3, 1-[(2R,3R)-3-[4-(4-cyanophenyl)thiazol-2-yl]-2-hydroxy-2-(2,4,5-trifluorophenyl)butyl]-4-(3,5-dimethyl-4-methylaminoacetoxybenzyl)-1H-[1,2,4]triazol-4-ium bromide hydrochloride] |  |  | > 7 mg/mL | < 1 min | < 5% | 89% |  |  |  |
| C[C@@H](c1nc(-c2ccc(C#N)cc2)cs1)[C@](O)(Cn1cncn1)c1cc(F)ccc1F [Example 4] |  |  |  |  |  |  |  | 35.1 µM |  |
| C[C@@H](c1nc(-c2ccc(C#N)cc2)cs1)[C@](O)(Cn1cncn1)c1cc(F)c(F)cc1F [Example 5] |  |  |  |  |  |  |  | 18.4 µM | IC50 (CYP3A4): 23 µM |
| OC(Cn1cncn1)(Cn1cncn1)c1ccc(F)cc1F [Fluconazole, reference compound] | 1.4 µmol/kg |  |  |  |  |  |  |  |  |
| CCC(C)n1ncn(-c2ccc(N3CCN(c4ccc(OCC5COC(Cn6cncn6)(c6ccc(Cl)cc6Cl)O5)cc4)CC3)cc2)c1=O (stereo not shown) [Itraconazole, reference compound] | 3.9 ± 2.2 µmol/kg | 4 µmol/kg |  |  |  |  | 2 ± 1.1 µmol/kg | 25.7 µM |  |
